Measurements as given in the supplement of paper PMC13380429.

Columns and labels:
Settings in all cases: 72 h
Vero E6 [1] = assay: relative viability EC50 (midpoint between 100% and the lowest measured viability); higher = less toxic
Calu-3 [2] = assay: as above
Caco-2 [3] = assay: as above
Vero E6 [4] = assay: cell viability relative to DMSO; higher = less toxic
Calu-3 [5] = assay: as above
HepG2 [6] = assay: as above
Caco-2 [7] = assay: as above
U2OS [8] = assay: as above
Vero E6 [9] = assay: drug sensitivity score (DSS) for viability; higher = more toxic; extreme values may be limits of the assay
Calu-3 [10] = assay: as above
HepG2 [11] = assay: as above
Caco-2 [12] = assay: as above
U2OS [13] = assay: as above
HepG2 [14] = assay: relative viability EC50 (midpoint between 100% and the lowest measured viability); higher = less toxic
U2OS [15] = assay: as above

Structure (SMILES) | relative viability EC50 (Vero E6 [1]) [µM] | relative viability EC50 (Calu-3 [2]) [µM] | relative viability EC50 (Caco-2 [3]) [µM] | cell viability (Vero E6 [4]; 1 nM) [%] | cell viability (Vero E6 [4]; 10 nM) [%] | cell viability (Vero E6 [4]; 100 nM) [%] | cell viability (Vero E6 [4]; 1000 nM) [%] | cell viability (Vero E6 [4]; 10000 nM) [%] | cell viability (Calu-3 [5]; 1 nM) [%] | cell viability (Calu-3 [5]; 10 nM) [%] | cell viability (Calu-3 [5]; 100 nM) [%] | cell viability (Calu-3 [5]; 1000 nM) [%] | cell viability (Calu-3 [5]; 10000 nM) [%] | cell viability (HepG2 [6]; 1 nM) [%] | cell viability (HepG2 [6]; 10 nM) [%] | cell viability (HepG2 [6]; 100 nM) [%] | cell viability (HepG2 [6]; 1000 nM) [%] | cell viability (HepG2 [6]; 10000 nM) [%] | cell viability (Caco-2 [7]; 1 nM) [%] | cell viability (Caco-2 [7]; 10 nM) [%] | cell viability (Caco-2 [7]; 100 nM) [%] | cell viability (Caco-2 [7]; 1000 nM) [%] | cell viability (Caco-2 [7]; 10000 nM) [%] | cell viability (U2OS [8]; 1 nM) [%] | cell viability (U2OS [8]; 10 nM) [%] | cell viability (U2OS [8]; 100 nM) [%] | cell viability (U2OS [8]; 1000 nM) [%] | cell viability (U2OS [8]; 10000 nM) [%] | drug sensitivity score (Vero E6 [9]) | drug sensitivity score (Calu-3 [10]) | drug sensitivity score (HepG2 [11]) | drug sensitivity score (Caco-2 [12]) | drug sensitivity score (U2OS [13]) | relative viability EC50 (HepG2 [14]) [µM] | relative viability EC50 (U2OS [15]) [µM]
CCOc1cc(N2CCC(O)CC2)ccc1Nc1ncc2c(n1)N(C)c1ccccc1C(=O)N2C [XMD8-92] | 2.26 | > 10 | > 10 | 99.7 | 93.2 | 99.7 | 93.5 | 41.2 | 90.2 | 112 | 98.1 | 109 | 77.5 | 101 | 99.4 | 102 | 104 | 74.4 | 96.1 | 93 | 90 | 89.8 | 84.6 | 92.7 | 105 | 93.6 | 94.6 | 73.3 | 4.3 | 0.5 | 0.8 | 0.9 | 1.8 |  | 
Clc1cccc(-n2nnnc2NCc2ccccc2Oc2ccccn2)c1Cl |  | > 10 | > 10 |  |  |  |  |  | 92 | 93.5 | 88 | 89.1 | 102 | 104 | 98.4 | 104 | 104 | 92.1 | 104 | 97.1 | 104 | 96.2 | 96.1 | 101 | 98.9 | 100 | 102 | 98.9 |  | 0 | 0 | 0 | 0 | > 10 | > 10
CCCOc1ccc2[nH]cc(C3=CCNCC3)c2n1 |  | > 10 | > 10 |  |  |  |  |  | 94.1 | 84.5 | 96.1 | 96.2 | 93.2 | 104 | 106 | 99.1 | 97.2 | 96.4 | 95.1 | 95.4 | 95.6 | 94.2 | 100 | 103 | 97.9 | 101 | 101 | 99.5 |  | 0 | 0 | 0 | 0 | > 10 | > 10
N[C@@H](C(=O)N[C@@H]1C(=O)N2C(C(=O)O)=C(Cl)CC[C@H]12)c1ccccc1 [loracarbef] |  | > 10 | > 10 |  |  |  |  |  | 88.5 | 102 | 96.6 | 102 | 99 | 100 | 100 | 96.3 | 92 | 97.6 | 107 | 104 | 95.9 | 91.5 | 98.2 | 93.6 | 102 | 95.7 | 100 | 101 |  | 0 | 0 | 0 | 0 | > 10 | > 10
